In paper PMC7948418, “Genetic and biased agonist-mediated reductions in β-arrestin recruitment prolong cAMP signaling at glucagon family receptors” (The Journal of Biological Chemistry, 2020):
Square brackets hold non-standard residues; d marks the D form. Ends that are not written are not given here.

T1: GIPR (Homo sapiens, UniProt P48546)
T1 sequence (P48546 22-466): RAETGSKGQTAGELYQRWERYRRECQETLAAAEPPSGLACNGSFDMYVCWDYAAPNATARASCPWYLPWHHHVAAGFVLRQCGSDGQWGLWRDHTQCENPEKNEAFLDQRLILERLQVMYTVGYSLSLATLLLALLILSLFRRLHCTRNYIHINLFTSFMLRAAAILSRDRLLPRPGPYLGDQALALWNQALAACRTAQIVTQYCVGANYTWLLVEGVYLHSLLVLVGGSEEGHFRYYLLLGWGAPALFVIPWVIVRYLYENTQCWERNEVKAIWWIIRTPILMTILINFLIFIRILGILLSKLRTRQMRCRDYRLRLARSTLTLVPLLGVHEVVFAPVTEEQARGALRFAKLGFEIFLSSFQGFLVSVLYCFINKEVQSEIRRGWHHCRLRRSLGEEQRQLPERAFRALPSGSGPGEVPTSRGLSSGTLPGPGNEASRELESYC

T2: GIPR-SmBiT (UniProt P48546)
T2 sequence: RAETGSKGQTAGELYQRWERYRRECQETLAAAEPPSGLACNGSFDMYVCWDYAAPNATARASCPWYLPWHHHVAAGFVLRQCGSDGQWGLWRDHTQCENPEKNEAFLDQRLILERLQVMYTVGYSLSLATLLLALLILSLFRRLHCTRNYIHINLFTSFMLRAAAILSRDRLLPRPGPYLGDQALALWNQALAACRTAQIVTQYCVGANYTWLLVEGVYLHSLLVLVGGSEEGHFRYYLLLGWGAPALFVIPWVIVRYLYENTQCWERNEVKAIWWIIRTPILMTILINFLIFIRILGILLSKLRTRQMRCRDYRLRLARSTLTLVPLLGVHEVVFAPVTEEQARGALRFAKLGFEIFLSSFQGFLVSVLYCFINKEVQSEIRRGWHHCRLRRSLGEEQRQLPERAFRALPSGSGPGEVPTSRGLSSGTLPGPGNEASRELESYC


Experiments:
[1] = molecular target: T3, GLP-1R (Homo sapiens, UniProt P43220); experiment: cAMP response (HTRF) in PathHunter CHO-GLP-1R cells; assay type: cell-based; settings: read-out: cAMP Emax (% GLP-1)
[2] = molecular target: T3, GLP-1R; experiment: β-arrestin-2 recruitment by enzyme fragment complementation (PathHunter) CHO-GLP-1R; assay type: cell-based; settings: read-out: βarr2 Emax (% GLP-1)
[3] = molecular target: T1, GIPR; experiment: cAMP response (HTRF) in PathHunter CHO-GIPR cells; assay type: cell-based; settings: for Emax: read-out: cAMP Emax (% GIP)
[4] = molecular target: T1, GIPR; experiment: β-arrestin-2 recruitment by enzyme fragment complementation (PathHunter) CHO-GIPR; assay type: cell-based; settings: for Emax: read-out: βarr2 Emax (% GIP)
[5] = molecular target: T2, GIPR-SmBiT; experiment: split reporter (BiFC, NanoBiT); NanoBiT complementation in HEK293T cells co-transfected with receptor-SmBiT and LgBiT-tagged effector; furimazine; 37 °C; baseline 5 min, then 100 nM cognate agonist (GLP-1, GIP or GCG) or vehicle, luminescence over 30 min, normalised to baseline and vehicle
[6] = molecular target: GLP-1R-SmBiT (UniProt P43220); experiment: as above
[7] = molecular target: T2, GIPR-SmBiT
[8] = molecular target: T2, GIPR-SmBiT; remark: listed apart in the source

T3 sequence (P43220 24-463): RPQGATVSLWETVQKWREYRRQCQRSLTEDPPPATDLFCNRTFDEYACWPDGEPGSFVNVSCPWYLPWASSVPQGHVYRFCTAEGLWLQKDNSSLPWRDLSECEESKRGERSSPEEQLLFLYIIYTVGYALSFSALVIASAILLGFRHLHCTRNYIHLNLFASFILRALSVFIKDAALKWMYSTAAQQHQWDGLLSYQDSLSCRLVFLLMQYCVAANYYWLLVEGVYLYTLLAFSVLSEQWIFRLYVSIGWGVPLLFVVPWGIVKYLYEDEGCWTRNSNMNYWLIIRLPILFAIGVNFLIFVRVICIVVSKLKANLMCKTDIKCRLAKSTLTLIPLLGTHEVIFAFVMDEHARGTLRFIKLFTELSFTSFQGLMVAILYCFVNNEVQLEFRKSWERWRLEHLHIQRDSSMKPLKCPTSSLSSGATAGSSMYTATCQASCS
Sequence of GLP-1R-SmBiT (P43220 24-463): as above

| Molecule | EC50 [3] [nM] | Emax [3] [%] | EC50 [4] [nM] | Emax [4] [%] | also measured |
| --- | --- | --- | --- | --- | --- |
| CC[C@H](C)[C@H](NC(=O)[C@H](Cc1ccccc1)NC(=O)[C@H](CCC(=O)O)NC(=O)[C@H](CCCCN)NC(=O)[C@H](C)NC(=O)[C@H](C)NC(=O)[C@H](CCC(N)=O)NC(=O)CNC(=O)[C@H](CCC(=O)O)NC(=O)[C@H](CC(C)C)NC(=O)[C@H](Cc1ccc(O)cc1)NC(=O)[C@H](CO)NC(=O)[C@H](CO)NC(=O)[C@@H](NC(=O)[C@H](CC(=O)O)NC(=O)[C@H](CO)NC(=O)[C@@H](NC(=O)[C@H](Cc1ccccc1)NC(=O)[C@@H](NC(=O)CNC(=O)[C@H](CCC(=O)O)NC(=O)CNC(=O)[C@@H](N)Cc1c[nH]cn1)[C@@H](C)O)[C@@H](C)O)C(C)C)C(=O)N[C@@H](C)C(=O)N[C@@H](Cc1c[nH]c2ccccc12)C(=O)N[C@@H](CC(C)C)C(=O)N[C@H](C(=O)N[C@@H](CCCCN)C(=O)NCC(=O)N[C@@H](CCCNC(=N)N)C(N)=O)C(C)C [GLP-1-Gly2] | – | – | – | – | Emax [1]: 95 ± 4%; Emax [2]: 93 ± 3% |
| YGEGTFISDYSIAMDKIHQQDFVNWLLAQKGKKNDWKHNITQ [GIP-Gly2] | 0.794 | 100 ± 4 | 316 | 66 ± 7 | – |
| FAEGTFISDYSIAMDKIHQQDFVNWLLAQKGKKNDWKHNITQ [GIP-Phe1] | 2 | 99 ± 3 | 1000 | 65 ± 3 | – |
| YA[dQ]GTFISDYSIAMDKIHQQDFVNWLLAQKGKKNDWKHNITQ [GIP-dGln3] | 25.1 | 110 ± 4 | 316 | 23 ± 1 | – |
| LgBiT-mini-Gs | – | – | – | – | t1/2 of ligand-induced mini-Gs recruitment [5]: 7.1 min; t1/2 of ligand-induced mini-Gs recruitment [6]: 1.5 min |
| CC[C@H](C)[C@H](NC(=O)[C@H](Cc1ccccc1)NC(=O)[C@H](CCC(=O)O)NC(=O)[C@H](CCCCN)NC(=O)[C@H](C)NC(=O)[C@H](C)NC(=O)[C@H](CCC(N)=O)NC(=O)CNC(=O)[C@H](CCC(=O)O)NC(=O)[C@H](CC(C)C)NC(=O)[C@H](Cc1ccc(O)cc1)NC(=O)[C@H](CO)NC(=O)[C@H](CO)NC(=O)[C@@H](NC(=O)[C@H](CC(=O)O)NC(=O)[C@H](CO)NC(=O)[C@@H](NC(=O)[C@H](Cc1ccccc1)NC(=O)[C@@H](NC(=O)CNC(=O)[C@@H](CCC(N)=O)NC(=O)[C@H](C)NC(=O)[C@@H](N)Cc1c[nH]cn1)[C@@H](C)O)[C@@H](C)O)C(C)C)C(=O)N[C@@H](C)C(=O)N[C@@H](Cc1c[nH]c2ccccc12)C(=O)N[C@@H](CC(C)C)C(=O)N[C@H](C(=O)N[C@@H](CCCCN)C(=O)NCC(=O)N[C@@H](CCCNC(=N)N)C(N)=O)C(C)C [GLP-1-dGln3] | – | – | – | – | Emax ([1]; 30-min stimulation, 37 °C, no phosphodiesterase inhibitors, 4-parameter fit, mean ± SEM, n = 5): 106 ± 5%; Emax ([2]; 30 min at 37 °C, 4-parameter fit, mean ± SEM, n = 5): 60 ± 4% |
| YAEGTFISDYSIAMDKIHQQDFVNWLLAQKGKKNDWKHNITQ [GIP(1–42)] | – | – | – | – | cAMP (HTRF), Log EC50, 10 min stimulation, wildtype HEK293 cells transiently transfected with SNAP-GIPR [7]: -9.4 Log EC50 (M); cAMP (HTRF), Log EC50, 10 min stimulation, β-arrestin-1/2 knockout HEK293 cells transiently transfected with SNAP-GIPR [7]: -9.1 Log EC50 (M); cAMP (HTRF), Log EC50, 60 min stimulation, wildtype HEK293 cells transiently transfected with SNAP-GIPR [7]: -9.6 Log EC50 (M); cAMP (HTRF), Log EC50, 60 min stimulation, β-arrestin-1/2 knockout HEK293 cells transiently transfected with SNAP-GIPR [7]: -9.7 Log EC50 (M); cytoplasmic PKA activation (AKAR4-NES FRET, AUC), Log EC50, wildtype HEK293 cells co-transfected with SNAP-GIPR [8]: -10.1 Log EC50 (M); cytoplasmic PKA activation (AKAR4-NES FRET, AUC), Log EC50, β-arrestin-1/2 knockout HEK293 cells co-transfected with SNAP-GIPR [8]: -10.9 Log EC50 (M) |
